Test system: PBMC
Test: IFN-γ ELISPOT assay of T cell responses to HERV and HIV-1 peptides
Type: cell-based, Human
Settings: a study participant whose PBMC were used for the 51Cr release assay
Experimental: HIV-1 positive volunteers were selected for this study. The study was approved by the local institutional review board and subjects were given written informed consent. Studies were performed on cryopreserved PBMC from various patient timepoints.
ELISPOT analysis was performed as previously described^34. Plates were incubated 15-18 hours at 37° C. Equivalent antigen concentrations were used for HIV and HERV peptide response comparisons. Assays were performed with duplicate wells for each condition, expect where cell recovery from archived samples dictated the use of single wells. Plates were counted with an AID ELISPOT reader (Cell Technology,). Spot totals for duplicate wells were averaged, and all spot numbers were normalized to numbers of IFN-γ spot-forming units (SFU) per 1×10^6PBMC. Spot values from media control wells were subtracted to determine responses to each peptide. Any resulting peptide values <0 following media subtraction were set to 0 for further analysis.

IPVHKAHKKQ [HERV-L IQ10]
response of study participant's PBMC to peptide: responded
